Experimental data taken from ChEMBL document CHEMBL1157770, “Functionalized pyrazoles and pyrazolo[3,4-d]pyridazinones: Synthesis and evaluation of their phosphodiesterase 4 inhibitory activity” (Bioorg Med Chem, 2010).

Tests used:
Phosphodiesterase 4 [1] = molecular target: T1, Phosphodiesterase 4 (Homo sapiens, UniProt P27815+Q08499+Q07343+Q08493); experiment: Inhibition of PDE4 in human U937 cells at 1 uM after 30 mins by electrochemiluminescence based immunoassay; assay type: cell-based; details: U-937
Phosphodiesterase 4 [2] = molecular target: T1, Phosphodiesterase 4; experiment: Inhibition of PDE4 in human U937 cells after 30 mins by electrochemiluminescence based immunoassay; assay type: cell-based; details: u-937
PBMC = experiment: Antiinflammatory activity in human PBMC assessed as inhibition of LPS-induced TNFalpha production; assay type: functional, cell-based
Phosphodiesterase 4 [3] = molecular target: T1, Phosphodiesterase 4; experiment: Inhibition of PDE4 in human U937 cells at 10 uM after 30 mins by electrochemiluminescence based immunoassay; assay type: cell-based; details: U-937

Row | SMILES | inhibition (Phosphodiesterase 4 [1]) [%] | IC50 (Phosphodiesterase 4 [2]) [µM] | also measured
1 | CCn1nc(C#N)c2c(C)n(-c3ccccc3Cl)nc2c1=O | -2 |  | 
2 | CCn1nc(C(=O)OC)c2c(C)n(-c3cccc([N+](=O)[O-])c3)nc2c1=O |  | 0.046 | 
3 | CCn1nc(COC)c2c(C)n(-c3ccccc3Cl)nc2c1=O | 41 |  | 
4 | CCn1nc(C(=O)N(C)C)c2c(C)n(-c3cccc([N+](=O)[O-])c3)nc2c1=O | 4 |  | 
5 | CCOC(=O)Cn1nc(-c2ccccc2)c2c(C)n(-c3cccc([N+](=O)[O-])c3)nc2c1=O | 1 |  | 
6 | CCOC(=O)CCn1nc(-c2ccccc2)c2c(C)n(-c3cccc([N+](=O)[O-])c3)nc2c1=O | 1 |  | 
7 | CCn1nc(-c2ccccc2)c(C#N)c1CCc1ccccc1C(=O)O | 11 |  | 
8 | CCOC(=O)c1nn(CC)c(=O)c2nn(-c3ccccc3)c(C)c12 |  | 0.3 | 
9 | CCCn1nc(C(=O)OCC)c2c(C)n(-c3cccc([N+](=O)[O-])c3)nc2c1=O |  | 0.072 | 
10 | CCn1nc(-c2ccccc2)c(C#N)c1/C=C/c1ccccc1C(=O)O | 6 |  | 
11 | CCn1nc(C(=O)O)c2c(C)n(-c3cccc([N+](=O)[O-])c3)nc2c1=O | 2 |  | 
12 | CCn1nc(-c2ccncc2)c(C#N)c1CCc1cccc2ccccc12 | 2.8 |  | 
13 | CCN(C)C(=O)c1nn(CC)c(=O)c2nn(-c3cccc([N+](=O)[O-])c3)c(C)c12 | -2 |  | 
14 | CCOC(=O)c1nn(CC)c(=O)c2nn(-c3cc(C(=O)OC)ccc3C)c(C)c12 |  | 0.876 | 
15 | Cc1nn(C)c(CCc2ccccc2)c1C#N | 2.1 |  | 
16 | CCn1nc(-c2ccncc2)c(C#N)c1/C=C/c1cccc2ccccc12 | 19 |  | 
17 | CCOC(=O)Cn1nc(C)c2c(C)n(-c3cccc([N+](=O)[O-])c3)nc2c1=O | 64.1 |  | 
18 | CCOC(=O)c1nn(CC)c(=O)c2nn(-c3cccc(CO)c3)c(C)c12 | 39 |  | 
19 | CCn1nc(-c2nnc(C)o2)c2c(C)n(-c3cccc([N+](=O)[O-])c3)nc2c1=O | 48 |  | 
20 | CCOC(=O)CCn1nc(C)c2c(C)n(-c3cccc([N+](=O)[O-])c3)nc2c1=O | 4 |  | 
21 | CCOC(=O)c1nn(CC)c(=O)c2nn(-c3ccccc3C)c(C)c12 |  | 0.059 | IC50 (PBMC): 0.127 µM
22 | CCn1nc(C(=O)Nc2c(Cl)cncc2Cl)c2c(C)n(-c3ccccc3)nc2c1=O | 3 |  | 

Row | SMILES | inhibition (Phosphodiesterase 4 [1]) [%] | IC50 (Phosphodiesterase 4 [2]) [µM] | also measured
23 | CCn1nc(CO)c2c(C)n(-c3ccccc3Cl)nc2c1=O | -4 |  | 
24 | CCOC(=O)c1nn(CC)c(=O)c2nn(-c3cc(C(N)=O)ccc3Cl)c(C)c12 |  | 0.757 | 
25 | COc1ccc(CCc2c(C#N)c(-c3ccccc3)nn2C)cc1OC | 14 |  | 
26 | CCn1nc(C(=O)NC)c2c(C)n(-c3cccc([N+](=O)[O-])c3)nc2c1=O | 14 |  | 
27 | CCn1nc(-c2ccccc2)c(C#N)c1/C=C/c1cccc2ccccc12 | 35 |  | 
28 | COCc1nn(CC2CC2)c(=O)c2nn(-c3ccccc3Cl)cc12 | 19 |  | 
29 | CCn1nc(COC)c2cn(-c3ccccc3Cl)nc2c1=O | 65 |  | 
30 | CCn1nc(-c2ccccc2)c(C#N)c1CCc1cccc2ccccc12 | -3 |  | 
31 | CCOC(=O)c1nn(CC)c(=O)c2nn(-c3c(Cl)cccc3Cl)c(C)c12 |  | 0.237 | 
32 | CCOC(=O)c1nn(CC)c(=O)c2nn(Cc3ccc(C#N)cc3)c(C)c12 |  |  | inhibition (Phosphodiesterase 4 [3]): 5%
33 | CCOC(=O)c1nn(CC)c(=O)c2nn(Cc3ccc(C(=O)OC)cc3)c(C)c12 |  | 1.2 | 
34 | CCOC(=O)c1nn(CC2CC2)c(=O)c2nn(-c3ccccc3Cl)c(C)c12 |  | 0.374 | 
35 | CCOC(=O)c1nn(CC)c(=O)c2nn(Cc3ccc([N+](=O)[O-])cc3)c(C)c12 |  | 1.14 | 
36 | CCOC(=O)c1nn(CC)c(=O)c2nn(-c3cccc([N+](=O)[O-])c3)c(C)c12 |  | 0.075 | IC50 (PBMC): 0.383 µM
37 | CCn1nc(-c2ccccc2)c2c(C)n(-c3cccc([N+](=O)[O-])c3)nc2c1=O | 47 |  | 
38 | CCn1nc(C)c2c(C)n(-c3cccc([N+](=O)[O-])c3)nc2c1=O |  | 0.385 | 
39 | CCn1nc(C(=O)OC(C)C)c2c(C)n(-c3cccc([N+](=O)[O-])c3)nc2c1=O | 6 |  | 
40 | Cc1nn(C)c(/C=C/c2ccccc2)c1C#N | 1.3 |  | 
41 | CCCOC(=O)c1nn(CC)c(=O)c2nn(-c3cccc([N+](=O)[O-])c3)c(C)c12 | 14 |  | 
42 | CCOC(=O)c1nn(CC)c(=O)c2nn(-c3ccccc3Cl)c(C)c12 |  | 0.032 | 
43 | CCn1nc(C#N)c2c(C)n(-c3c(Cl)cccc3Cl)nc2c1=O | 2 |  | 
